Legend:
[1] = tested on: human brain microvascular endothelial cell (BMEC); assay: sAPP770 secreted from BMEC detected by APP770 ELISA; format: cell-based; details: culture 16 hr, n=4; for level of sAPP770 secreted from BMEC: cytokine 100 ng/ml
Description: (A) Brief explanations of APP total ELISA and APP770 ELISA. The recognition sites of a trap antibody (with asterisk) and a detection antibody (without asterisk) in these ELISA systems are shown in the schematic drawing. (B) Western blot analysis. Anti-N terminal APP (22C11) antibody detects full-length APP695, APP751 and APP770 in the lysates of COS cells overexpressing APP695, APP751 and APP770, whereas anti-OX2 antibody used as a trap antibody in APP770 ELISA specifically recognizes APP770. (C) APP total ELISA detects sAPP695, sAPP751 and sAPP770 secreted from COS cells, whereas APP770 ELISA detects only sAPP770. (D) BMEC was cultured for 16 hr in the presence or absence of inflammatory cytokine (TNFα, IL-1β or IL-6; each 100 ng/ml), and sAPP770 secreted from the cells was detected by APP770 ELISA. […] (E) An influence on secretion of sAPP770 from BMEC by culture for 16 hr in the presence of TAPI-0 (10 μM). […] (F) The sAPP770 levels of human serum and human plasma samples are shown in mean±SEM (n=19).
Human APP695-pcDNA3.1, APP751-pcDNA3.1 and APP770-pcDNA3.1 used were those constructed in the previous study (J Biol Chem 285(51):40097-40103 (2010)). Human BMEC (Applied Cell Biology Research Institute) was cultured in CS-C complete medium added with 10% FBS, and used within 4 passages.
Using human sAPP total assay kit (IBL-Japan), sAPP695, sAPP751 and sAPP770 were detected according to the established protocol (http://www.ibl-japan.co.jp). The APP770 ELISA system was established as previously reported (Anal Chim Acta 631(1): 116-120 (2009)). Briefly explained, a 96 well plate was coated with an anti-OX2 antibody, and a horseradish peroxidase-conjugated anti-APP R101A4 antibody was used as a detection antibody. Human CSF (1:16 diluted with dilution buffer contained in kit), plasma and serum (1:75 diluted with dilution buffer contained in kit) were evaluated by APP total ELISA and APP770 ELISA.

platelets = assay: release of sAPP770 from collagen-stimulated platelets (PRP), APP770 ELISA; format: cell-based, human; details: collagen final concentration 3 μg/ml
Description: (A, B) PRP was stirred under stimulation with collagen (final concentration 3 μg/ml). At the time points shown in the Figure, each sample was centrifuged, and supernatant (A) […] and platelet pellet (B) were analyzed by APP770 ELISA. (C) Platelets were washed, stimulated with collagen, centrifuged, and sAPP770 released in the supernatant was analyzed. (D) Schematic drawing showing APP770 and the sites recognized by a series of anti-APP antibodies. (E) After stimulation of platelets with collagen and, at the time points shown in the Figure, the platelet pellets were solubilized, sAPP was pulled down from the platelet release product, and analyzed by western blotting using anti-APP(22C11) antibody, anti-OX2 antibody, anti-APP(C) antibody and anti-KPI antibody. […]
On the day of experiment, blood (16 ml) was collected from healthy human by using a vacuum blood collection tube (NIPRO CORPORATION) containing 3.8% sodium citrate. […] The obtained cell lysate was evaluated by ELISA and Western blot analysis.
Using human sAPP total assay kit (IBL-Japan), sAPP695, sAPP751 and sAPP770 were detected according to the established protocol (http://www.ibl-japan.co.jp). […] Human CSF (1:16 diluted with dilution buffer contained in kit), plasma and serum (1:75 diluted with dilution buffer contained in kit) were evaluated by APP total ELISA and APP770 ELISA.

Compound	level of sAPP770 secreted from BMEC [1]	further results
TNFα	significantly increased only slightly	
IL-6: recombinant human inflammatory cytokine from R&D Systems	did not increase	
collagen		level of sAPP770 in the platelet precipitate (platelets; after stimulation): decreased remarkably; level of sAPP770 in the PRP supernatant (platelets; one minute after stimulation): increased rapidly
IL-1β: recombinant human inflammatory cytokine from R&D Systems	significantly increased only slightly	
CC(C)C[C@H](CC(=O)NO)C(=O)N[C@@H](Cc1ccc2ccccc2c1)C(=O)N[C@@H](C)C(N)=O [TAPI-0]		secretion of sAPP770 from BMEC ([1]; TAPI-0 10 μM): partially inhibited

Source: patent US20150219644A1, “MARKER FOR ACUTE CORONARY SYNDROME, AND USE THEREOF” (RIKEN, priority 2012, published 2015)
